# Measurements from patent publication US6174896A, “Quinuclidine derivatives and medicinal composition thereof” (Yamanouchi Pharmaceutical Co., Ltd., priority 1994, dated 2001).
# Test system: oxotremorine-induced salivary secretion
# Assay: Test on salivary secretion in rat
# Format: in vivo
# Conditions: urethane-anesthetized male Wistar rat, oxotremorine 0.8 μmol/kg
# Experimental: A male Wistar rat (160-190 g) was subjected to anesthesia with urethane (0.8 g/kg i.p.), and the test compound was administered (to the control group: solvent). Fifteen minutes later, 0.8 μmol/kg of oxotremorine was administered. In each case, the drug was administered through its femoral artery. The saliva secreted for 5 minutes after the administration of oxotremorine was collected and weighed. The inhibition ratio against the amount of saliva in the control group was determined and the dose of the test compound required for 50% inhibition of the amount of saliva in the control group was designated as ID50.
structure (smiles),measurement,value
CN1[C@@H]2CC[C@H]1C[C@@H](OC(=O)C(CO)c1ccccc1)C2 (stereo partly shown) [atropine],ID50 value (salivary secretion) compared with ED30 value (rhythmic bladder contraction),substantially the same
